# Measured values from US20220125777A1, “COMBINATION OF A CDK INHIBITOR AND A PIM INHIBITOR” (Pfizer Inc., priority 2019, published 2022).
# Test system: HR+/HER2− advanced or metastatic breast cancer
# Assay: Study 2: progression-free survival by PIM2 mRNA expression, palbociclib plus fulvestrant vs placebo plus fulvestrant
# Assay type: in vivo, human
# Details: Study 2, control arm, fulvestrant alone (placebo plus fulvestrant 500 mg IM); FIG. 2A
# Experimental: Study 2 was conducted in HR+/HER2− advanced or metastatic breast cancer (MBC) patients who had progressed on prior endocrine therapy. Pre- and peri-menopausal subjects were given an LHRH agonist. Subjects were treated with palbociclib (125 mg QD, 3/1 schedule) plus fulvestrant (500 mg IM on Days 1 and 15 of Cycle 1, and then Day 1 of each subsequent 28-day cycle) or placebo (3/1 schedule QD) plus fulvestrant on the same schedule. In both studies, the primary outcome was PFS as assessed by the investigator.
# Tumor samples were analyzed to identify potential predictive biomarkers for palbociclib plus letrozole treatment. Using the EdgeSeq Oncology BM Panel, mRNA expression was assessed for 2534 cancer-related genes. […] Targeted capture sequencing was used to quantitate RNA expression levels of gene targets. […]
# The primary outcome was PFS as assessed by the investigator.
# Tumor samples were analyzed by EdgeSeq Oncology BM Panel (HTG Molecular Diagnostics; https://www.htgmolecular.com/assays/obp) for mRNA expression assessment of 2534 cancer-related genes. […]
# The EdgeSeq system used was validated and used targeted capture sequencing to quantitate RNA expression levels of gene targets in formalin-fixed paraffin-embedded tumor tissues. […]
smiles,measurement,value
C[C@]12CC[C@@H]3c4ccc(O)cc4C[C@@H](CCCCCCCCC[S+]([O-])CCCC(F)(F)C(F)(F)F)[C@H]3[C@@H]1CC[C@@H]2O (stereo partly shown) [fulvestrant],PFS of subjects having low PIM2 expression versus higher PIM2 expression,shorter PFS
